According to ChEMBL document CHEMBL1201861, “Genomics of Drug Sensitity in Cancer screening data, Wellcome Trust Sanger Institute”:

What was measured:
HCC1954 = test: cells; type: functional, cell-based; conditions: Homo sapiens;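 also: growth inhibition of human HCC1954 cells, read out with a cell viability assay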
Description: SANGER: Inhibition of human HCC1954 cell growth in a cell viability assay.

EFO-27 = test: cells; type: functional, cell-based; conditions: Homo sapiens;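 also: growth inhibition of EFO-27 cells, read out with a cell viability assay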
Description: SANGER: Inhibition of human EFO-27 cell growth in a cell viability assay.

SBC-5 = test: cells; type: functional, cell-based; conditions: Homo sapiens;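 also: cell viability assay read-out, IC50 is the concentration that inhibits growth of the cells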
Description: SANGER: Inhibition of human SBC-5 cell growth in a cell viability assay.

SCLC-21H = test: cells; type: functional, cell-based; conditions: Homo sapiens;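 also: growth inhibition of cultured human SCLC-21H cells, read out with a cell viability assay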
Description: SANGER: Inhibition of human SCLC-21H cell growth in a cell viability assay.

ChaGo-K-1 = test: cells; type: functional, cell-based; conditions: Homo sapiens;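 also: growth inhibition of ChaGo-K-1 cells, read out with a cell viability assay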
Description: SANGER: Inhibition of human ChaGo-K-1 cell growth in a cell viability assay.

CAL-72 = test: cells; type: functional, cell-based; conditions: Homo sapiens;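 also: cell viability assay measuring inhibition of proliferation in the CAL-72 cell line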
Description: SANGER: Inhibition of human CAL-72 cell growth in a cell viability assay.

SW756 = test: cells; type: functional, cell-based; conditions: Homo sapiens;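 also: growth inhibition of human SW756 cells, read out with a cell viability assay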
Description: SANGER: Inhibition of human SW756 cell growth in a cell viability assay.

EHEB = test: cells; type: functional, cell-based; conditions: Homo sapiens;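 also: growth inhibition of human EHEB cells, read out with a cell viability assay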
Description: SANGER: Inhibition of human EHEB cell growth in a cell viability assay.

COR-L105 = test: cells; type: functional, cell-based; conditions: Homo sapiens
Description: SANGER: Inhibition of human COR-L105 cell growth in a cell viability assay.

OE19 = test: cells; type: functional, cell-based; conditions: Homo sapiens;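 also: growth inhibition of OE19 cells, measured through a cell viability read-out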
Description: SANGER: Inhibition of human OE19 cell growth in a cell viability assay.

KMS-12-PE = test: cells; type: functional, cell-based; conditions: Homo sapiens;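 also: growth inhibition of human KMS-12-PE cells, measured with a cell viability assay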
Description: SANGER: Inhibition of human KMS-12-PE cell growth in a cell viability assay.

M059J = test: cells; type: functional, cell-based; conditions: Homo sapiens;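 also: growth inhibition of M059J cells, read out with a cell viability assay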
Description: SANGER: Inhibition of human M059J cell growth in a cell viability assay.

SCC-4 = test: cells; type: functional, cell-based; conditions: Homo sapiens;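 also: growth inhibition of human SCC-4 cells, read out as cell viability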
Description: SANGER: Inhibition of human SCC-4 cell growth in a cell viability assay.

IGR-1 = test: cells; type: functional, cell-based; conditions: Homo sapiens;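 also: growth inhibition of human IGR-1 cells, read out with a cell viability assay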
Description: SANGER: Inhibition of human IGR-1 cell growth in a cell viability assay.

HuO-3N1 = test: cells; type: functional, cell-based; conditions: Homo sapiens;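 also: cell viability readout used to measure how strongly compounds suppress proliferation of human HuO-3N1 cells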
Description: SANGER: Inhibition of human HuO-3N1 cell growth in a cell viability assay.

HCC1419 = test: cells; type: functional, cell-based; conditions: Homo sapiens;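 also: growth inhibition of human HCC1419 cells, read out as cell viability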
Description: SANGER: Inhibition of human HCC1419 cell growth in a cell viability assay.

A253 cell line = test: cells; type: functional, cell-based; conditions: Homo sapiens;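 also: growth inhibition of A253 cells, read out with a cell viability assay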
Description: SANGER: Inhibition of human A253 cell growth in a cell viability assay.

NCI-H719 = test: cells; type: functional, cell-based; conditions: Homo sapiens;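 also: growth inhibition of the cultured cell line, read out with a viability assay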
Description: SANGER: Inhibition of human NCI-H719 cell growth in a cell viability assay.

MHH-CALL-2 = test: cells; type: functional, cell-based; conditions: Homo sapiens;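 also: growth inhibition of the cell line, read out in a cell viability assay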
Description: SANGER: Inhibition of human MHH-CALL-2 cell growth in a cell viability assay.

NCI-H1963 = test: cells; type: functional, cell-based; conditions: Homo sapiens;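 also: cell growth inhibition of the human line, determined with a cell viability assay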
Description: SANGER: Inhibition of human NCI-H1963 cell growth in a cell viability assay.

L-540 = test: cells; type: functional, cell-based; conditions: Homo sapiens;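 also: growth inhibition of the human L-540 cell line, read out with a viability assay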
Description: SANGER: Inhibition of human L-540 cell growth in a cell viability assay.

NCI-H889 = test: cells; type: functional, cell-based; conditions: Homo sapiens;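 also: cell growth inhibition of the cell line, read out with a viability assay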
Description: SANGER: Inhibition of human NCI-H889 cell growth in a cell viability assay.

NCI-H1618 = test: cells; type: functional, cell-based; conditions: Homo sapiens;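 also: growth inhibition of human NCI-H1618 cells, measured by a cell viability assay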
Description: SANGER: Inhibition of human NCI-H1618 cell growth in a cell viability assay.

SNU-C1 = test: cells; type: functional, cell-based; conditions: Homo sapiens;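 also: growth inhibition of SNU-C1 human cells, read out by a cell viability assay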
Description: SANGER: Inhibition of human SNU-C1 cell growth in a cell viability assay.

SW837 = test: cells; type: functional, cell-based; conditions: Homo sapiens;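 also: growth inhibition of SW837 cells, determined with a cell viability assay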
Description: SANGER: Inhibition of human SW837 cell growth in a cell viability assay.

NCI-H810 = test: cells; type: functional, cell-based; conditions: Homo sapiens;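 also: IC50 reflects inhibition of cancer cell line growth, read out with a cell viability assay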
Description: SANGER: Inhibition of human NCI-H810 cell growth in a cell viability assay.

NCI-H524 = test: cells; type: functional, cell-based; conditions: Homo sapiens;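 also: growth inhibition of human NCI-H524 cells, read out through a cell viability assay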
Description: SANGER: Inhibition of human NCI-H524 cell growth in a cell viability assay.

IM-9 = test: SANGER: Inhibition of human IM-9 cell growth in a cell viability assay.; type: functional, cell-based
SK-N-AS = test: cells; type: functional, cell-based; conditions: Homo sapiens;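 also: growth inhibition of human SK-N-AS cells, measured with a cell viability assay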
Description: SANGER: Inhibition of human SK-N-AS cell growth in a cell viability assay.

SW1573 = test: cells; type: functional, cell-based; conditions: Homo sapiens;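 also: growth inhibition of SW1573 cells, read out with a cell viability assay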
Description: SANGER: Inhibition of human SW1573 cell growth in a cell viability assay.

LOUCY = test: cells; type: functional, cell-based; conditions: Homo sapiens;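 also: growth inhibition of human LOUCY cells, read out with a cell viability assay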
Description: SANGER: Inhibition of human LOUCY cell growth in a cell viability assay.

NCI-H1651 = test: cells; type: functional, cell-based; conditions: Homo sapiens;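 also: Read-out is a cell viability assay, with IC50 expressing inhibition of NCI-H1651 cell growth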
Description: SANGER: Inhibition of human NCI-H1651 cell growth in a cell viability assay.

NCI-H322M = test: cells; type: functional, cell-based; conditions: Homo sapiens;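 also: cell viability assay measuring inhibition of growth of human NCI-H322M cells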
Description: SANGER: Inhibition of human NCI-H322M cell growth in a cell viability assay.

CHP-126 = test: cells; type: functional, cell-based; conditions: Homo sapiens
Description: SANGER: Inhibition of human CHP-126 cell growth in a cell viability assay.

CAL-27 = test: cells; type: functional, cell-based; conditions: Homo sapiens;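 also: Viability-based readout, IC50 reflecting inhibition of CAL-27 cell growth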
Description: SANGER: Inhibition of human CAL-27 cell growth in a cell viability assay.

U-698-M = test: cells; type: functional, cell-based; conditions: Homo sapiens
Description: SANGER: Inhibition of human U-698-M cell growth in a cell viability assay.

HOS = test: cells; type: functional, cell-based; conditions: Homo sapiens;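 also: growth inhibition of human HOS cells, read out with a cell viability assay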
Description: SANGER: Inhibition of human HOS cell growth in a cell viability assay.

ABC-1 = test: cells; type: functional, cell-based; conditions: Homo sapiens;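 also: growth inhibition of human ABC-1 cells, read out by a cell viability assay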
Description: SANGER: Inhibition of human ABC-1 cell growth in a cell viability assay.

U-251 = test: cells; type: functional, cell-based; conditions: Homo sapiens;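 also: growth inhibition of human U-251 cells, read out through a cell viability assay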
Description: SANGER: Inhibition of human U251 cell growth in a cell viability assay.

MC-CAR = test: cells; type: functional, cell-based; conditions: Homo sapiens;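 also: growth inhibition of the human MC-CAR cell line, read out by a cell viability assay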
Description: SANGER: Inhibition of human MC-CAR cell growth in a cell viability assay.

SW948 = test: cells; type: functional, cell-based; conditions: Homo sapiens;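 also: growth inhibition of SW948 cells, read out with a cell viability assay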
Description: SANGER: Inhibition of human SW948 cell growth in a cell viability assay.

DG-75 = test: cells; type: functional, cell-based; conditions: Homo sapiens;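 also: growth inhibition of DG-75 cells, read out with a cell viability assay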
Description: SANGER: Inhibition of human DG-75 cell growth in a cell viability assay.

D-392MG = test: cells; type: functional, cell-based; conditions: Homo sapiens
SNU-423 = test: cells; type: functional, cell-based; conditions: Homo sapiens
Description: SANGER: Inhibition of human SNU-423 cell growth in a cell viability assay.

NCI-H1792 = test: cells; type: functional, cell-based; conditions: Homo sapiens;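 also: growth inhibition of human NCI-H1792 cells, read out as cell viability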
Description: SANGER: Inhibition of human NCI-H1792 cell growth in a cell viability assay.

HT1197 = test: cells; type: functional, cell-based, HT-1197; conditions: Homo sapiens
Description: SANGER: Inhibition of human HT-1197 cell growth in a cell viability assay.

A-431 = test: cells; type: functional, cell-based; conditions: Homo sapiens;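 also: growth inhibition of A-431 cells, determined with a cell viability read-out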
Description: SANGER: Inhibition of human A431 cell growth in a cell viability assay.

S-117 = test: cells; type: functional, cell-based; conditions: Homo sapiens
Description: SANGER: Inhibition of human S-117 cell growth in a cell viability assay.

HCC1395 = test: cells; type: functional, cell-based; conditions: Homo sapiens;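 also: growth inhibition of HCC1395 cells, read out by a cell viability assay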
Description: SANGER: Inhibition of human HCC1395 cell growth in a cell viability assay.

HOP-92 = test: cells; type: functional, cell-based; conditions: Homo sapiens;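 also: cell viability readout, with IC50 reflecting inhibition of HOP-92 cell growth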
Description: SANGER: Inhibition of human HOP-92 cell growth in a cell viability assay.

LoVo = test: cells; type: functional, cell-based; conditions: Homo sapiens;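 also: growth inhibition of human LoVo cells, read out with a cell viability assay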
Description: SANGER: Inhibition of human LoVo cell growth in a cell viability assay.

NCI-H1417 = test: cells; type: functional, cell-based; conditions: Homo sapiens;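 also: human NCI-H1417 cells, growth inhibition determined with a cell viability readout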
Description: SANGER: Inhibition of human NCI-H1417 cell growth in a cell viability assay.

D-542MG = test: cells; type: functional, cell-based; conditions: Homo sapiens
Description: SANGER: Inhibition of human D-542MG cell growth in a cell viability assay.

P31-FUJ = test: cells; type: functional, cell-based; conditions: Homo sapiens;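 also: growth inhibition of P31-FUJ cells, read out with a viability assay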
Description: SANGER: Inhibition of human P31-FUJ cell growth in a cell viability assay.

LCLC-103H cell line = test: cells; type: functional, cell-based; conditions: Homo sapiens
Description: SANGER: Inhibition of human LCLC-103H cell growth in a cell viability assay.

HPAF-II = test: cells; type: functional, cell-based; conditions: Homo sapiens;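 also: growth inhibition of HPAF-II cells, read out with a cell viability assay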
Description: SANGER: Inhibition of human HPAF-II cell growth in a cell viability assay.

SN12C = test: cells; type: functional, cell-based; conditions: Homo sapiens;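 also: growth inhibition of human SN12C cells, measured by a cell viability assay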
Description: SANGER: Inhibition of human SN12C cell growth in a cell viability assay.

NCI-H187 = test: cells; type: functional, cell-based; conditions: Homo sapiens;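 also: growth inhibition of NCI-H187 cells, read out as cell viability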
Description: SANGER: Inhibition of human NCI-H187 cell growth in a cell viability assay.

LB996-RCC = test: cells; type: functional, cell-based; conditions: Homo sapiens
Description: SANGER: Inhibition of human LB996-RCC cell growth in a cell viability assay.

`O=c1[nH]c2ccccc2n1C1CCN(Cc2ccc(-c3nc4cc5[nH]cnc5cc4nc3-c3ccccc3)cc2)CC1` was tested, and the IC50 (HCC1954) was > 2560 nM, the IC50 (EFO-27) was > 2560 nM and the IC50 (SBC-5) was > 2560 nM. For the same compound, the IC50 (SCLC-21H) was > 2560 nM, the IC50 (ChaGo-K-1) was > 2560 nM and the IC50 (CAL-72) was > 2560 nM. The IC50 (SW756) was > 2560 nM, the IC50 (EHEB) was > 2560 nM and the IC50 (COR-L105) was > 2560 nM. For the same compound, the IC50 (OE19) was > 2560 nM, the IC50 (KMS-12-PE) was > 2560 nM and the IC50 (M059J) was > 2560 nM. The IC50 (SCC-4) was > 2560 nM, the IC50 (IGR-1) was > 2560 nM and the IC50 (HuO-3N1) was > 2560 nM. For the same compound, the IC50 (HCC1419) was 2340 nM, the IC50 (A253 cell line) was > 2560 nM and the IC50 (NCI-H719) was > 2560 nM. The IC50 (MHH-CALL-2) was > 2560 nM, the IC50 (NCI-H1963) was > 2560 nM and the IC50 (L-540) was > 2560 nM. For the same compound, the IC50 (NCI-H889) was > 2560 nM, the IC50 (NCI-H1618) was > 2560 nM and the IC50 (SNU-C1) was 2010 nM. For the same compound, the IC50 (SW837) was > 2560 nM, the IC50 (NCI-H810) was > 2560 nM and the IC50 (NCI-H524) was > 2560 nM. The IC50 (IM-9) was > 2560 nM, the IC50 (SK-N-AS) was > 2560 nM and the IC50 (SW1573) was > 2560 nM. For the same compound, the IC50 (LOUCY) was > 2560 nM, the IC50 (NCI-H1651) was > 2560 nM and the IC50 (NCI-H322M) was > 2560 nM. The IC50 (CHP-126) was > 2560 nM, the IC50 (CAL-27) was > 2560 nM and the IC50 (U-698-M) was > 2560 nM. For the same compound, the IC50 (HOS) was > 2560 nM, the IC50 (ABC-1) was > 2560 nM and the IC50 (U-251) was > 2560 nM. For the same compound, the IC50 (MC-CAR) was > 2560 nM, the IC50 (SW948) was > 2560 nM and the IC50 (DG-75) was > 2560 nM. The IC50 (D-392MG) was > 2560 nM, the IC50 (SNU-423) was > 2560 nM and the IC50 (NCI-H1792) was > 2560 nM. The IC50 (HT1197) was > 2560 nM, the IC50 (A-431) was > 2560 nM and the IC50 (S-117) was > 2560 nM. For the same compound, the IC50 (HCC1395) was > 2560 nM, the IC50 (HOP-92) was > 2560 nM and the IC50 (LoVo) was > 2560 nM. For the same compound, the IC50 (NCI-H1417) was > 2560 nM, the IC50 (D-542MG) was > 2560 nM and the IC50 (P31-FUJ) was > 2560 nM. The IC50 (LCLC-103H cell line) was > 2560 nM, the IC50 (HPAF-II) was > 2560 nM and the IC50 (SN12C) was > 2560 nM. For the same compound, the IC50 (NCI-H187) was > 2560 nM and the IC50 (LB996-RCC) was > 2560 nM.

For `Fc1cc(-c2cc[nH]/c(=N/c3ccc(-n4cnc(N5CCOCC5)n4)cc3)n2)cc(N2CCOCC2)c1`, the IC50 (HCC1954) was 1220 nM, the IC50 (EFO-27) was 413 nM and the IC50 (SBC-5) was 398 nM. For the same compound, the IC50 (SCLC-21H) was > 5120 nM, the IC50 (ChaGo-K-1) was 1370 nM and the IC50 (CAL-72) was > 5120 nM. For the same compound, the IC50 (SW756) was 2060 nM, the IC50 (EHEB) was 376 nM and the IC50 (COR-L105) was 235 nM. For the same compound, the IC50 (OE19) was 1100 nM, the IC50 (KMS-12-PE) was 1160 nM and the IC50 (M059J) was 926 nM. For the same compound, the IC50 (SCC-4) was 1250 nM, the IC50 (IGR-1) was 164 nM and the IC50 (HuO-3N1) was 1570 nM. The IC50 (HCC1419) was 1090 nM, the IC50 (A253 cell line) was 261 nM and the IC50 (NCI-H719) was 2240 nM. The IC50 (MHH-CALL-2) was 762 nM, the IC50 (NCI-H1963) was 873 nM and the IC50 (L-540) was 677 nM. For the same compound, the IC50 (NCI-H889) was 2260 nM, the IC50 (NCI-H1618) was 1820 nM and the IC50 (SNU-C1) was 390 nM. For the same compound, the IC50 (SW837) was 2950 nM, the IC50 (NCI-H810) was 208 nM and the IC50 (NCI-H524) was > 5120 nM. The IC50 (IM-9) was 3340 nM, the IC50 (SK-N-AS) was 1210 nM and the IC50 (SW1573) was 881 nM. The IC50 (LOUCY) was 112 nM, the IC50 (NCI-H1651) was 1070 nM and the IC50 (NCI-H322M) was > 5120 nM. It also gave an IC50 (CHP-126) of 608 nM, an IC50 (CAL-27) of 66 nM and an IC50 (U-698-M) of 282 nM. It also gave an IC50 (HOS) of 613 nM, an IC50 (ABC-1) of 889 nM and an IC50 (U-251) of 1310 nM. For the same compound, the IC50 (MC-CAR) was 380 nM, the IC50 (SW948) was 835 nM and the IC50 (DG-75) was 1290 nM. The IC50 (D-392MG) was 1930 nM, the IC50 (SNU-423) was 378 nM and the IC50 (NCI-H1792) was 2490 nM. The IC50 (HT1197) was 611 nM, the IC50 (A-431) was 249 nM and the IC50 (S-117) was > 5120 nM. It also gave an IC50 (HCC1395) of 413 nM, an IC50 (HOP-92) of 2410 nM and an IC50 (LoVo) of 437 nM. The IC50 (NCI-H1417) was > 5120 nM, the IC50 (D-542MG) was 357 nM and the IC50 (P31-FUJ) was 4640 nM. For the same compound, the IC50 (LCLC-103H cell line) was 135 nM, the IC50 (HPAF-II) was 512 nM and the IC50 (SN12C) was 1150 nM. For the same compound, the IC50 (NCI-H187) was 2790 nM and the IC50 (LB996-RCC) was 522 nM.
